ChEMBL document CHEMBL4765227, “Hit to lead optimization of a series of N-[4-(1,3-benzothiazol-2-yl)phenyl]acetamides as monoacylglycerol lipase inhibitors with potential anticancer activity” (Eur J Med Chem, 2016)

Assays:
Format in all cases: functional
Conditions in all cases: read-out: GI
SW-620 = assay: Growth inhibition of human SW-620 cells at 10 uM incubated for 48 hrs by sulforhodamine B assay relative to control
NCI/ADR-RES = assay: Growth inhibition of human NCI/ADR-RES cells at 10 uM incubated for 48 hrs by sulforhodamine B assay relative to control
BT-549 = assay: Growth inhibition of human BT-549 cells at 10 uM incubated for 48 hrs by sulforhodamine B assay relative to control
KM12 = assay: Growth inhibition of human KM12 cells at 10 uM incubated for 48 hrs by sulforhodamine B assay relative to control
K562 = assay: Growth inhibition of human K562 cells at 10 uM incubated for 48 hrs by sulforhodamine B assay relative to control
TK-10 = assay: Growth inhibition of human TK-10 cells at 10 uM incubated for 48 hrs by sulforhodamine B assay relative to control
HL-60(TB) = assay: Growth inhibition of human HL-60(TB) cells at 10 uM incubated for 48 hrs by sulforhodamine B assay relative to control
M14 = assay: Growth inhibition of human M14 cells at 10 uM incubated for 48 hrs by sulforhodamine B assay relative to control
ACHN = assay: Growth inhibition of human ACHN cells at 10 uM incubated for 48 hrs by sulforhodamine B assay relative to control
SNB-19 = assay: Growth inhibition of human SNB-19 cells at 10 uM incubated for 48 hrs by sulforhodamine B assay relative to control
IGROV-1 = assay: Growth inhibition of human IGROV-1 cells at 10 uM incubated for 48 hrs by sulforhodamine B assay relative to control
SN12C = assay: Growth inhibition of human SN12C cells at 10 uM incubated for 48 hrs by sulforhodamine B assay relative to control
UACC-62 = assay: Growth inhibition of human UACC-62 cells at 10 uM incubated for 48 hrs by sulforhodamine B assay relative to control
OVCAR-5 = assay: Growth inhibition of human OVCAR-5 cells at 10 uM incubated for 48 hrs by sulforhodamine B assay relative to control
NCI-H226 = assay: Growth inhibition of human NCI-H226 cells at 10 uM incubated for 48 hrs by sulforhodamine B assay relative to control
T47D = assay: Growth inhibition of human T47D cells at 10 uM incubated for 48 hrs by sulforhodamine B assay relative to control
CCRF-CEM = assay: Growth inhibition of human CCRF-CEM cells at 10 uM incubated for 48 hrs by sulforhodamine B assay relative to control
RPMI-8226 = assay: Growth inhibition of human RPMI-8226 cells at 10 uM incubated for 48 hrs by sulforhodamine B assay relative to control
UO-31 = assay: Growth inhibition of human UO-31 cells at 10 uM incubated for 48 hrs by sulforhodamine B assay relative to control
PC-3 = assay: Growth inhibition of human PC-3 cells at 10 uM incubated for 48 hrs by sulforhodamine B assay relative to control
RXF 393 = assay: Growth inhibition of human RXF 393 cells at 10 uM incubated for 48 hrs by sulforhodamine B assay relative to control
SK-MEL-5 = assay: Growth inhibition of human SK-MEL-5 cells at 10 uM incubated for 48 hrs by sulforhodamine B assay relative to control
NCI-H460 = assay: Growth inhibition of human NCI-H460 cells at 10 uM incubated for 48 hrs by sulforhodamine B assay relative to control
HCT-116 = assay: Growth inhibition of human HCT-116 cells at 10 uM incubated for 48 hrs by sulforhodamine B assay relative to control
HOP-62 = assay: Growth inhibition of human HOP-62 cells at 10 uM incubated for 48 hrs by sulforhodamine B assay relative to control
CAKI-1 = assay: Growth inhibition of human CAKI-1 cells at 10 uM incubated for 48 hrs by sulforhodamine B assay relative to control
NCI-H322M = assay: Growth inhibition of human NCI-H322M cells at 10 uM incubated for 48 hrs by sulforhodamine B assay relative to control
HCC 2998 = assay: Growth inhibition of human HCC 2998 cells at 10 uM incubated for 48 hrs by sulforhodamine B assay relative to control
Malme-3M = assay: Growth inhibition of human Malme-3M cells at 10 uM incubated for 48 hrs by sulforhodamine B assay relative to control
SK-OV-3 = assay: Growth inhibition of human SK-OV-3 cells at 10 uM incubated for 48 hrs by sulforhodamine B assay relative to control
HCT-15 = assay: Growth inhibition of human HCT-15 cells at 10 uM incubated for 48 hrs by sulforhodamine B assay relative to control
MDA-MB-231 = assay: Growth inhibition of human MDA-MB-231 cells at 10 uM incubated for 48 hrs by sulforhodamine B assay relative to control
U-251 = assay: Growth inhibition of human U-251 cells at 10 uM incubated for 48 hrs by sulforhodamine B assay relative to control
MDA-MB-435 = assay: Growth inhibition of human MDA-MB-435 cells at 10 uM incubated for 48 hrs by sulforhodamine B assay relative to control
MOLT-4 = assay: Growth inhibition of human MOLT-4 cells at 10 uM incubated for 48 hrs by sulforhodamine B assay relative to control
A549 = assay: Growth inhibition of human A549/ATCC cells at 10 uM incubated for 48 hrs by sulforhodamine B assay relative to control
SK-MEL-28 = assay: Growth inhibition of human SK-MEL-28 cells at 10 uM incubated for 48 hrs by sulforhodamine B assay relative to control
HT-29 = assay: Growth inhibition of human HT-29 cells at 10 uM incubated for 48 hrs by sulforhodamine B assay relative to control
MDA-MB-468 = assay: Growth inhibition of human MDA-MB-468 cells at 10 uM incubated for 48 hrs by sulforhodamine B assay relative to control
NCI-H522 = assay: Growth inhibition of human NCI-H522 cells at 10 uM incubated for 48 hrs by sulforhodamine B assay relative to control
HOP-92 = assay: Growth inhibition of human HOP-92 cells at 10 uM incubated for 48 hrs by sulforhodamine B assay relative to control
DU-145 = assay: Growth inhibition of human DU-145 cells at 10 uM incubated for 48 hrs by sulforhodamine B assay relative to control
SNB-75 = assay: Growth inhibition of human SNB-75 cells at 10 uM incubated for 48 hrs by sulforhodamine B assay relative to control
OVCAR-8 = assay: Growth inhibition of human OVCAR-8 cells at 10 uM incubated for 48 hrs by sulforhodamine B assay relative to control

O=C(Cn1nnc2ccccc21)Nc1ccc(-c2nc3ccccc3s2)cc1
inhibition of growth at 10 µM (SW-620): 5.47% | inhibition of growth at 10 µM (NCI/ADR-RES): 3.77% | inhibition of growth at 10 µM (BT-549): 13.5% | inhibition of growth at 10 µM (KM12): 8.6% | inhibition of growth at 10 µM (K562): 44.8% | inhibition of growth at 10 µM (TK-10): 5.23% | inhibition of growth at 10 µM (HL-60(TB)): 9.24% | inhibition of growth at 10 µM (M14): 9.36% | inhibition of growth at 10 µM (ACHN): -9.93% | inhibition of growth at 10 µM (SNB-19): -2.9% | inhibition of growth at 10 µM (IGROV-1): 2.46% | inhibition of growth at 10 µM (SN12C): -0.79% | inhibition of growth at 10 µM (UACC-62): 2.9% | inhibition of growth at 10 µM (OVCAR-5): -4.45% | inhibition of growth at 10 µM (NCI-H226): 32.5% | inhibition of growth at 10 µM (T47D): 33.1% | inhibition of growth at 10 µM (CCRF-CEM): 30.3% | inhibition of growth at 10 µM (RPMI-8226): 14.7% | inhibition of growth at 10 µM (UO-31): 13.5% | inhibition of growth at 10 µM (PC-3): 16.7% | inhibition of growth at 10 µM (RXF 393): 0.05% | inhibition of growth at 10 µM (SK-MEL-5): 25.7% | inhibition of growth at 10 µM (NCI-H460): 17% | inhibition of growth at 10 µM (HCT-116): 2.6% | inhibition of growth at 10 µM (HOP-62): -1.24% | inhibition of growth at 10 µM (CAKI-1): 14.5% | inhibition of growth at 10 µM (NCI-H322M): -2.72% | inhibition of growth at 10 µM (HCC 2998): 6.26% | inhibition of growth at 10 µM (Malme-3M): 3.07% | inhibition of growth at 10 µM (SK-OV-3): -4.22% | inhibition of growth at 10 µM (HCT-15): 8.49% | inhibition of growth at 10 µM (MDA-MB-231): 5.25% | inhibition of growth at 10 µM (U-251): 10.4% | inhibition of growth at 10 µM (MDA-MB-435): 4.09% | inhibition of growth at 10 µM (MOLT-4): 38.4% | inhibition of growth at 10 µM (A549): 6.45% | inhibition of growth at 10 µM (SK-MEL-28): -1.87% | inhibition of growth at 10 µM (HT-29): -0.75% | inhibition of growth at 10 µM (MDA-MB-468): 124% | inhibition of growth at 10 µM (NCI-H522): 20.8% | inhibition of growth at 10 µM (HOP-92): 26.9% | inhibition of growth at 10 µM (DU-145): 26% | inhibition of growth at 10 µM (SNB-75): -6.26% | inhibition of growth at 10 µM (OVCAR-8): 1.53%
